# Patent US8541576B2, “Substituted pyrazolo-quinazoline derivatives as kinase inhibitors” (Nerviano Medical Sciences SRL, priority 2010, dated 2013)
# Key:
# [1] = system: MV-4-11 (biphenotypic B myelomonocytic leukemia) cells; assay: In vitro cell proliferation assay (CellTiter-Glo); type: cell-based; conditions: Homo sapiens, MV4-11, antiproliferative activity, 72 hours
# Protocol: In Vitro Cell Proliferation Assay:
# MV-4-11 (biphenotypic B myelomonocytic leukemia) cells (1250 cells/well) were seeded in white 384 well-plates in complete medium (RPMI 1640 or EMEM plus 10% Fetal bovine serum) and treated with compounds dissolved in 0.1% DMSO, 24 h after seeding. The cells were incubated at 37° C. and 5% CO2 and after 72 hours the plates were processed using CellTiter-Glo® assay (Promega) following the manufacturer's instruction. CellTiter-Glo® is a homogenous method based on the quantification of the ATP present, an indicator of metabolically active cells. ATP is quantified using a system based on luciferase and D-luciferin resulting into light generation. The luminescent signal is proportional to the number of cells present in culture.
# Briefly 25 μl/well reagent solution was added to each wells and after 5 minutes shacking microplates were red by Envision® (PerkinElmer) luminometer. The luminescent signal was proportional to the number of cells present in culture.
# Inhibitory activity was evaluated comparing treated versus control data using Assay Explorer (MDL) program. IC50 was calculated using sigmoidal interpolation curve.
# Full-length human PIM-1 = target: T1, Full-length human PIM-1 (Homo sapiens, UniProt P11309); assay: Biochemical assay for inhibitors of PIM-1 kinase activity (trans-phosphorylation, Dowex resin, 33P-ATP); conditions: ATP 200 μM, enzyme 1 nM, Aktide 25 μM
# T1 construct: Full-length human PIM-1 was expressed and purified; made in house
# Protocol: Biochemical assay for inhibitors of PIM-1 kinase activity
# The inhibitory activity of putative kinase inhibitors and the potency of selected compounds were determined using a trans-phosphorylation assay.
# Specific peptide or protein substrates are trans-phosphorylated by their specific ser-thr or tyr kinase in the presence of ATP traced with ^33P-γ-ATP, and in the presence of their own optimal buffer and cofactors.
# At the end of the phosphorylation reaction, more than 98% unlabeled ATP and radioactive ATP is captured by an excess of the ion exchange Dowex® resin; the resin then settles down to the bottom of the reaction plate by gravity.
# Supernatant is subsequently withdrawn and transferred into a counting plate, then evaluated by β-counting.
# The buffer for PIM-1 assay was composed of HEPES 50 mM, at pH 7.5, with 10 mM MgCl2, 1 mM DTT, 3 μM NaVO3, and 0.2 mg/ml BSA
# Full-length human PIM-1 was expressed and purified as described in Bullock A N, et al., J. Biol. Chem. 2005, 280, 41675-82.
# 1.7 μM PIM1 was incubated 1 hour RT at 28° C. in the presence of 125 μM ATP
# ATP concentration: 200 μM
# Enzyme concentration: 1 nM
# Substrate concentration Aktide (Chemical Abstract Service Registry Number 324029-01-8): 25 μM
# The test mix consisted of:
# 1) 3× Enzyme mix (done in Kinase Buffer 3×), 5 μL/well
# 2) 3× substrate and ATP mix (done in ddH2O), together with ^33P-γ-ATP, 5 μL/well
# 3) 3× test compounds (diluted into ddH2O—3% DMSO)-5 μL/well
# For IC50 determination, test compounds are received as a 1 mM solution in 100% DMSO and distributed into 96-well plates: compounds are then plated into the first column of a new 96-well plate (A1 to G1), 100 μl/well.
# An automated station (Biomek FX®, Beckman) is used for serial dilutions, producing 1:3 dilutions in 100% DMSO, from line A1 to A10, for all the compounds in the column. Moreover, 4-5 copies of daughter plates are prepared by reformatting 5 μL of this first set of 100% DMSO dilution plates into 384-deep well plates: one copy of these serial dilution plates with the test compounds is thawed on the day of study, reconstituted at the working concentration (3-fold the final concentration) with 162 μL/well of water and used for IC50 determination assays. In a standard experiment, the highest concentration (3×) of compounds is typically 30 μM, while the lowest one is typically 1.5 nM.
# Each 384-well plate generates at least one curve of the standard inhibitor staurosporine and reference wells (total enzyme activity vs. no enzymatic activity) for evaluation of Z′ and signal to background (S/B) ratio.
# 384-well plates, V bottom (test plates) are prepared with 5 μl of compound diluted as previously described (3×) and then placed onto a PlateTrak® 12 robotized station (Perkin Elmer; the robot has one 384-tip pipetting head for assay start, plus one 96-tip head for dispensing resin) together with one reservoir for Enzyme mix (3×) and one for ATP mix (3×).
# Data are analyzed by an internally customized version of the “Assay Explorer®” SW package, which provides sigmoidal fitting of the ten-dilution curves for IC50 determination in secondary assay/hit confirmation routines.
# Full-length human PIM-2 = target: T2, Full-length human PIM-2 (Homo sapiens, UniProt Q9P1W9); assay: PIM-2 kinase inhibition assay: Dowex technique; type: biochemical; conditions: ATP 4 μM, enzyme 1.5 nM, Aktide 5 μM
# T2 construct: Full-length human PIM-2 was expressed and purified; made in house
# Protocol: Method for PIM-2 Kinase Inhibition Assay: Dowex Technique
# The buffer for PIM-2 assay was composed of HEPES 50 mM, at pH 7.5, with 1 mM MgCl2, 1 mM DTT, 3 μM Na3VO4, and 0.2 mg/ml BSA
# Full-length human PIM-2 was expressed and purified as described in Fedorov O, et al. (2007) PNAS 104, 51, 20523-28.
# Assay Conditions (Final Concentrations):
# Enzyme concentration=1.5 nM
# Aktide substrate (Chemical Abstract Service Registry Number 324029-01-8)=5 μM
# See above: same procedure as described for PIM-1.
# T2 sequence (Q9P1W9 whole entry): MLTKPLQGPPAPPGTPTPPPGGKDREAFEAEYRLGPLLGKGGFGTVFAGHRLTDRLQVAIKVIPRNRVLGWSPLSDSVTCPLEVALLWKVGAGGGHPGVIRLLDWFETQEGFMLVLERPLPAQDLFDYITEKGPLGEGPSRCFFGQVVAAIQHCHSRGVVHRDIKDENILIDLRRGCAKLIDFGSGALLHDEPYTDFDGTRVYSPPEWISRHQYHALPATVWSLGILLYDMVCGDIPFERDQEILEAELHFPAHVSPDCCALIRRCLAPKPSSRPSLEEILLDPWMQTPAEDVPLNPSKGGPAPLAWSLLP
# T1 sequence (P11309 whole entry): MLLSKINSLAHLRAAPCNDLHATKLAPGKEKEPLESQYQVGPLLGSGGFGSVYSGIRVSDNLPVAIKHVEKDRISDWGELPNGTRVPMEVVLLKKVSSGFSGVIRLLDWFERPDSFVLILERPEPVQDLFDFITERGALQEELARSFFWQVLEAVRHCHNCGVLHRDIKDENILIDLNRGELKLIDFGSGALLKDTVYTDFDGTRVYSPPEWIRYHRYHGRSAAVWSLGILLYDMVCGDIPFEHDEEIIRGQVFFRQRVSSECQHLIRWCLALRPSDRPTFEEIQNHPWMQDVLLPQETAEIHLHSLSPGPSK
smiles,measurement,setting,value
"CSc1ncc2ccc3c(C(N)=O)nn(CCN)c3c2n1 [Compound 15, 1-(2-aminoethyl)-8-(methylsulfanyl)-1H-pyrazolo[4,3-h]quinazoline-3-carboxamide]",IC50,[1],1430 nM
same,IC50,Full-length human PIM-1,143 nM
same,IC50,Full-length human PIM-2,282 nM
"CSc1ncc2c(n1)-c1c(c(C(N)=O)nn1C)CC2 [Ref. Compound 2, 1-methyl-8-(methylsulfanyl)-4,5-dihydro-1H-pyrazolo[4,3-h]quinazoline-3-carboxamide, reference compound]",IC50,Full-length human PIM-1,1010 nM
same,IC50,Full-length human PIM-2,> 10000 nM
"CSc1ncc2ccc3c(C(N)=O)nn([C@H]4C[C@@H](CO)C4)c3c2n1 [Compound 106, 1-[cis-3-(hydroxymethyl)cyclobutyl]-8-(methylsulfanyl)-1H-pyrazolo[4,3-h]quinazoline-3-carboxamide]",IC50,[1],21 nM
same,IC50,Full-length human PIM-1,3 nM
same,IC50,Full-length human PIM-2,13 nM
"CNC(=O)c1nn(C(C)(C)C)c2c1ccc1cnc(SC)nc12 [Compound 7, 1-tert-butyl-N-methyl-8-(methylsulfanyl)-1H-pyrazolo[4,3-h]quinazoline-3-carboxamide]",IC50,[1],1760 nM
same,IC50,Full-length human PIM-1,41 nM
same,IC50,Full-length human PIM-2,156 nM
"CSc1ncc2ccc3c(C(N)=O)nn(CC4CCNCC4)c3c2n1 [Compound 17, 8-(methylsulfanyl)-1-(piperidin-4-ylmethyl)-1H-pyrazolo[4,3-h]quinazoline-3-carboxamide]",IC50,[1],1540 nM
same,IC50,Full-length human PIM-1,9 nM
same,IC50,Full-length human PIM-2,160 nM
"CN1CCN(c2ccc(Oc3ncc4ccc5c(C(N)=O)nn(C)c5c4n3)c(Br)c2)CC1 [Compound 29, 8-[2-bromo-4-(4-methylpiperazin-1-yl)phenoxy]-1-methyl-1H-pyrazolo[4,3-h]quinazoline-3-carboxamide]",IC50,[1],758 nM
same,IC50,Full-length human PIM-1,21 nM
same,IC50,Full-length human PIM-2,2400 nM
"CSc1ncc2ccc3c(C(N)=O)nn(C4CCOCC4)c3c2n1 [Compound 104, 8-(methylsulfanyl)-1-(tetrahydro-2H-pyran-4-yl)-1H-pyrazolo[4,3-h]quinazoline-3-carboxamide]",IC50,[1],185 nM
same,IC50,Full-length human PIM-1,14 nM
same,IC50,Full-length human PIM-2,35 nM
"CSc1ncc2ccc3c(C(N)=O)nn(C(C)CCN)c3c2n1 (centres unmarked) [Compound 102, 1-(4-aminobutan-2-yl)-8-(methylsulfanyl)-1H-pyrazolo[4,3-h]quinazoline-3-carboxamide]",IC50,[1],35 nM
same,IC50,Full-length human PIM-1,1 nM
same,IC50,Full-length human PIM-2,1 nM
"CSc1ncc2ccc3c(C(N)=O)nn(C)c3c2n1 [Compound 87, 1-methyl-8-(methylsulfanyl)-1H-pyrazolo[4,3-h]quinazoline-3-carboxamide]",IC50,[1],1940 nM
same,IC50,Full-length human PIM-1,123 nM
same,IC50,Full-length human PIM-2,888 nM
"CSc1ncc2c(n1)-c1c(c(C(N)=O)nn1C1CCNCC1)CC2 [Compound 72, 8-(methylsulfanyl)-1-(piperidin-4-yl)-4,5-dihydro-1H-pyrazolo[4,3-h]quinazoline-3-carboxamide]",IC50,[1],1780 nM
same,IC50,Full-length human PIM-1,270 nM
same,IC50,Full-length human PIM-2,313 nM
"CN1CCN(c2ccc(Oc3ncc4ccc5c(C(N)=O)nn(CCO)c5c4n3)cc2)CC1 [Compound 46, 1-(2-hydroxyethyl)-8-[4-(4-methylpiperazin-1-yl)phenoxy]-1H-pyrazolo[4,3-h]quinazoline-3-carboxamide]",IC50,[1],673 nM
same,IC50,Full-length human PIM-1,81 nM
same,IC50,Full-length human PIM-2,1300 nM
"Cn1nc(C(N)=O)c2c1-c1nc(N3CCCCC3)ncc1CC2 [Ref. Compound 1, 1-methyl-8-(piperidin-1-yl)-4,5-dihydro-1H-pyrazolo[4,3-h]quinazoline-3-carboxamide, reference compound]",IC50,Full-length human PIM-1,> 10000 nM
same,IC50,Full-length human PIM-2,> 10000 nM
"CSc1ncc2ccc3c(C(N)=O)nn(CC4CCCNC4)c3c2n1 (centres unmarked) [Compound 94, 8-(methylsulfanyl)-1-(piperidin-3-ylmethyl)-1H-pyrazolo[4,3-h]quinazoline-3-carboxamide]",IC50,[1],534 nM
same,IC50,Full-length human PIM-1,80 nM
same,IC50,Full-length human PIM-2,311 nM
"CSc1ncc2ccc3c(C(N)=O)nn([C@@H]4C[C@H]5CC[C@@H](C4)N5)c3c2n1 [Compound 99, 1-[(3-exo)-8-azabicyclo[3.2.1]oct-3-yl]-8-(methylsulfanyl)-1H-pyrazolo[4,3-h]quinazoline-3-carboxamide]",IC50,[1],102 nM
same,IC50,Full-length human PIM-1,16 nM
same,IC50,Full-length human PIM-2,33 nM
"NC(=O)c1nn(C2CCC(N)CC2)c2c1ccc1cnc(-c3ccccc3)nc12 (centres unmarked) [Compound 111, 1-(4-aminocyclohexyl)-8-phenyl-1H-pyrazolo[4,3-h]quinazoline-3-carboxamide]",IC50,Full-length human PIM-1,400 nM
same,IC50,Full-length human PIM-2,210 nM
"CSc1ncc2ccc3c(C(N)=O)nn(C4CCCNC4)c3c2n1 (centres unmarked) [Compound 92, 8-(methylsulfanyl)-1-(piperidin-3-yl)-1H-pyrazolo[4,3-h]quinazoline-3-carboxamide]",IC50,[1],147 nM
same,IC50,Full-length human PIM-1,22 nM
same,IC50,Full-length human PIM-2,21 nM
"CN1CCN(c2ccc(Oc3ncc4ccc5c(C(N)=O)nn(C)c5c4n3)cc2)CC1 [Compound 26, 1-methyl-8-[4-(4-methylpiperazin-1-yl)phenoxy]-1H-pyrazolo[4,3-h]quinazoline-3-carboxamide]",IC50,[1],520 nM
same,IC50,Full-length human PIM-1,33 nM
same,IC50,Full-length human PIM-2,861 nM
"CN1CCN(c2ccc(Oc3ncc4ccc5c(C(N)=O)nn(C)c5c4n3)c(F)c2)CC1 [Compound 36, 8-[2-fluoro-4-(4-methylpiperazin-1-yl)phenoxy]-1-methyl-1H-pyrazolo[4,3-h]quinazoline-3-carboxamide]",IC50,[1],940 nM
same,IC50,Full-length human PIM-1,116 nM
same,IC50,Full-length human PIM-2,694 nM
"CN1CCN(c2ccc(Oc3ncc4c(n3)-c3c(c(C(N)=O)nn3C)CC4)cc2)CC1 [Compound 25, 1-methyl-8-[4-(4-methylpiperazin-1-yl)phenoxy]-4,5-dihydro-1H-pyrazolo[4,3-h]quinazoline-3-carboxamide]",IC50,[1],> 10000 nM
same,IC50,Full-length human PIM-1,776 nM
same,IC50,Full-length human PIM-2,> 10000 nM
"CN(C)c1ncc2ccc3c(C(N)=O)nn(C(C)(C)C)c3c2n1 [Compound 52, 1-tert-butyl-8-(dimethylamino)-1H-pyrazolo[4,3-h]quinazoline-3-carboxamide]",IC50,[1],866 nM
same,IC50,Full-length human PIM-1,13 nM
same,IC50,Full-length human PIM-2,21 nM
"CSc1ncc2ccc3c(C(N)=O)nn(C4CN5CCC4CC5)c3c2n1 (centres unmarked) [Compound 103, 1-(1-azabicyclo[2.2.2]oct-3-yl)-8-(methylsulfanyl)-1H-pyrazolo[4,3-h]quinazoline-3-carboxamide]",IC50,[1],221 nM
same,IC50,Full-length human PIM-1,15 nM
same,IC50,Full-length human PIM-2,28 nM
"CC(=O)c1cc(N2CCN(C)CC2)ccc1Oc1ncc2ccc3c(C(N)=O)nn(C)c3c2n1 [Compound 37, 8-[2-acetyl-4-(4-methylpiperazin-1-yl)phenoxy]-1-methyl-1H-pyrazolo[4,3-h]quinazoline-3-carboxamide]",IC50,Full-length human PIM-1,4120 nM
same,IC50,Full-length human PIM-2,> 1000 nM
